# Results reported in PMC7673371, “Real-Time Parallel Artificial Membrane Permeability Assay Based on Supramolecular Fluorescent Artificial Receptors” (Frontiers in Chemistry, 2020).
# Entries after “also recorded” stand apart in the source; their conditions may differ.
# Columns and labels:
# [1] = RT-PAMPA with BE•CB7 as FAR, Avanti PAMPA lipid layer; type: in vitro ADME; conditions: berberine∙cucurbit[7]uril reporter pair, analyte in water
# [2] = RT-PAMPA with MDAP∙CB8 fluorescent receptor and Avanti lipid
# Method: Analyte solutions were prepared at 1 mmol/L in Millipore water or cosolvents as indicated. The MDAP∙CB8 reporter pair solution contained 5 μmol/L of MDAP and 6 μmol/L of CB8 that were dissolved in Millipore water. Two lipid solutions were used, including the commercial Avanti PAMPA lipid blend I and the self-prepared 2% DOPC in dodecane. To proceed with the assay, 5 μL of the lipid solution was pipetted to the microporous filter and allowed to impregnate evenly; 300 μL of the analyte solution was transferred to the lower donor well, and 100 μL of the reporter pair solution was transferred to the upper acceptor well. The acceptor plate was combined with the donor plate after the solutions had been loaded to define the start point of the assay. Fluorescence readings were taken on a Jasco FP-8500 fluorimeter equipped with a microplate reader with an excitation wavelength at 418 nm and monitored at an emission wavelength of 449 nm.
# RT-PAMPA and fluorescence titration experiments were conducted on a Jasco FP-8500 fluorimeter with an attached microplate reader. For RT-PAMPA, the analytes were prepared at 1 mmol/l, while the FARs, including MDAP•CB8 and berberine•cucurbit[7]uril (BE•CB7), were prepared at 5 μmol/l.
# In the first step, 5 μl of the lipid solution (Avanti PAMPA Blend I or 2% DOPC) was loaded on the microporous bottom of the acceptor well and allowed to disperse evenly. Subsequently, 100 μl of the FAR solution was loaded in the acceptor well, and 300 μl of the analyte solution was loaded into the donor well. Immediately after the solutions were loaded, the two plates were combined with the acceptor plate on top and the donor plate at the bottom. Fluorescence intensity was recorded at 449 nm with an excitation wavelength of 418 nm for the MDAP•CB8 experiments and recorded at 500 nm with an excitation wavelength of 342 nm for the BE•CB7 experiments. For the titration experiments, 2.5 ml of the 1 μmol/l MDAP•CB8 solution was placed into a 1-cm length quartz cuvette, followed by gradual addition of the indole solution. The solution was excited at 418 nm and the fluorescence spectra were recorded upon each addition of the indole solution. The fluoresc ence decrease at 449 nm was fitted with a 1:l binding model in order to obtain the binding constants of the MDAP•CB8•indole […]
# 2 Blank control experiments […]
# 5 Calculation of permeability
# The effective permeability (Pe) of an analyte was calculated with the below equation (Wohnsland and […]
# logP = log {−C × ln (1 − [analyte]acceptor )}
# Based on the principle of the RT-PAMPA, the concentration of analyte in the acceptor well ([analyte]acceptor) and the concentration at equilibrium ([analyte]equilibrium) were obtained with the below equations, with the knowledge of the fluorescence intensity of the acceptor well and the binding constant of the ternary MDAP•CB8•analyte complex. It should be noted that the retention of analyte in the lipid layer was not taken into account.
# [analyte]acceptor = [analyte]complex + [analyte]free
# = IA − IG × [G ] + IA − IG […]
# [analyte] = A G × [G ] + IGA − IG […]
# IA: fluorescence intensity of the acceptor well at the chosen time point; IG: initial fluorescence intensity of the acceptor well;
# IGA: fluorescence intensity of the ternary complex;
# [G0]: initial concentration of FAR in the acceptor well;
# [A0]: initial concentration of analyte in the donor well;
# VA: volume of the solution in the acceptor well;
# VD: volume of the solution in the donor well;
# Ka: binding constant of the ternary MDAP•CB8•analyte complex.
# [3] = not told; cited from earlier work
# [4] = RT-PAMPA with MDAP∙CB8 fluorescent receptor and 2% DOPC lipid; type: in vitro ADME; conditions: RT-PAMPA conditions, 2% DOPC in dodecane
# Method: with an attached microplate reader.
# Subsequently, 100 μl of the
# Fluorescence intensity was recorded at 449 nm
# For the titration experiments,
# gradual addition of the indole solution.
# were recorded upon each addition of the indole solution. The fluoresc ence decrease at 449 nm was
# 2 Blank control experiments
# [5] = 1 mmol/L analyte in donor well, MDAP∙CB8 in acceptor well, Avanti lipid, compared with absence of analyte
# [6] = RT-PAMPA, fast = sharp fluorescence drop in initial several minutes, slow = response on time scale of several hours
structure (smiles),measurement,setting,value
OC12CC3CC(CC(C3)C1)C2 [1-adamantanol],fluorescence response indicative of effective permeation,[1],strong fluorescence response
N[C@@H](Cc1ccccc1)C(=O)O [L-Phenylalanine],fluorescence response indicative of analyte permeation through the lipid layer,[2]; [5],no significant fluorescence response
NC(=O)[C@@H](N)Cc1c[nH]c2ccccc12 [L-tryptophanamide],fluorescence response indicative of analyte permeation through the lipid layer,[2]; PAMPA,significant fluorescence responses
same,permeation characteristics (fast or slow) from the permeation curves,[2]; PAMPA,slowly permeating
same,permeability coefficient (logPe),[3],−5.56
O=c1ccc2ccccc2o1 [coumarin],fluorescence response indicative of analyte permeation through the lipid layer,[2]; [5],significant fluorescence responses
same,permeation characteristics (fast or slow) from the permeation curves,[2]; [6],Fast permeation
CN(C)CCC=C1c2ccccc2COc2ccccc21 [doxepin],fluorescence response indicative of analyte permeation through the lipid layer,[2]; [5],no significant fluorescence response
c1ccc2[nH]ccc2c1 [indole],fluorescence response indicative of analyte permeation through the lipid layer,[2]; [5],significant fluorescence responses
same,permeation characteristics (fast or slow) from the permeation curves,[2]; [6],Fast permeation
same,log Pe,"[2]; indole 0.010 mmol/l, time 0.15 h",–4.55
same,log Pe,"[2]; indole 0.010 mmol/l, time 0.30 h",–4.67
same,log Pe,"[2]; indole 0.010 mmol/l, time 0.45 h",–4.59
same,log Pe,"[2]; indole 0.010 mmol/l, time 0.58 h",–4.52
same,log Pe,"[2]; indole 0.010 mmol/l, time 0.73 h",–4.53
same,log Pe,"[2]; indole 0.010 mmol/l, time 0.87 h",–4.52
same,log Pe,"[2]; indole 0.010 mmol/l, time 1.43 h",–4.55
same,log Pe,"[2]; indole 0.010 mmol/l, time 1.85 h",–4.59
same,log Pe,"[2]; indole 0.1 mmol/l, time 0.15 h",–4.70
same,log Pe,"[2]; indole 0.1 mmol/l, time 0.30 h",–4.72
same,log Pe,"[2]; indole 0.1 mmol/l, time 0.45 h",–4.74
same,log Pe,"[2]; indole 0.1 mmol/l, time 0.58 h",–4.73
same,log Pe,"[2]; indole 0.1 mmol/l, time 0.73 h",–4.74
same,log Pe,"[2]; indole 0.1 mmol/l, time 0.87 h",–4.72
same,log Pe,"[2]; indole 0.1 mmol/l, time 1.43 h",–4.81
same,log Pe,"[2]; indole 0.1 mmol/l, time 1.85 h",–4.87
same,log Pe,"[2]; indole 1.0 mmol/l, time 0.15 h",–5.15
same,log Pe,"[2]; indole 1.0 mmol/l, time 0.30 h",–5.09
same,log Pe,"[2]; indole 1.0 mmol/l, time 0.45 h",–5.17
same,log Pe,"[2]; indole 1.0 mmol/l, time 0.58 h",–5.21
same,log Pe,"[2]; indole 1.0 mmol/l, time 0.73 h",–5.28
same,log Pe,"[2]; indole 1.0 mmol/l, time 0.87 h",–5.32
same,log Pe,"[2]; indole 1.0 mmol/l, time 1.43 h",–5.49
same,log Pe,"[2]; indole 1.0 mmol/l, time 1.85 h",–5.59
Cc1c(OCC(F)(F)F)ccnc1C[S+]([O-])c1nc2ccccc2[nH]1 (stereo not shown) [lansoprazole],fluorescence response indicative of analyte permeation through the lipid layer,[2]; [5],significant fluorescence responses
same,permeation characteristics (fast or slow) from the permeation curves,[2]; [6],slowly permeating
CCC(=O)Nc1ccc(Cl)c(Cl)c1 [propanil],fluorescence response indicative of analyte permeation through the lipid layer,[2]; [5],significant fluorescence responses
same,permeation characteristics (fast or slow) from the permeation curves,[2]; [6],Fast permeation
NCCc1c[nH]c2ccc(O)cc12 [serotonin],fluorescence response indicative of analyte permeation through the lipid layer,[2]; [5],no significant fluorescence response
c1ccc2[nH]c(-c3cscn3)nc2c1 [thiabendazole],influence of organic cosolvent in donor well on permeation curves,"[2]; 0.1 mmol/L in 2 and 20% ethanol, initial hour",overlapped
same,fluorescence response indicative of analyte permeation through the lipid layer,[2]; [5],significant fluorescence responses
same,permeation characteristics (fast or slow) from the permeation curves,[2]; [6],Fast permeation
O=c1ccc2ccc(O)cc2o1 [umbelliferone],fluorescence response indicative of analyte permeation through the lipid layer,[2]; [5],significant fluorescence responses; also recorded: appreciable permeability
same,permeation characteristics (fast or slow) from the permeation curves,[2]; [6],slowly permeating
same,permeation through the 2% DOPC lipid,[4],did not permeate to a significant extent
CN(C)CCc1c[nH]c2ccc(C[C@H]3COC(=O)N3)cc12 [zolmitriptan],fluorescence response indicative of analyte permeation through the lipid layer,[2]; [5],no significant fluorescence response
